The data set can be described thus: UV absorption spectrum (λmax, E1%) of the UV filter compounds. Type of data set: physicochemical. The conditions noted are these: for E1%: at main λmax; for E1% (shoulder): at shoulder; for λmax: main maximum.

We go through 3 molecules from patent US7510703B2, “UV-photoprotecting/sunscreen compositions comprising silane/siloxane derivatives of merocyanine sulfones” (L'Oreal, priority 2004, dated 2009).

As for `C#CCN(C)C=CC=C(C(=O)OCC)S(=O)(=O)c1ccccc1` [ethyl-5-[methyl(prop-2-ynyl)amino]-2-(phenylsulfonyl)penta-2,4-dienoate], for the setting “UV (CH2Cl2)”, the E1% amounted to 1367, the “E1% (shoulder)” value is reported as 1298, the λmax is reported as 366 nm and the “λmax (shoulder)” value is on record as 358 nm.
In the case of `COC(=O)/C(=C\C=C\N(C)CCC[Si](C)(O[Si](C)(C)C)O[Si](C)(C)C)S(=O)(=O)c1ccc(C)cc1` [Example 1], for the setting “UV (Ethanol)”, the E1% turned out to be 1154, the “E1% (shoulder)” value was 773, the λmax amounted to 372 nm and the “λmax (shoulder)” value is recorded as 356 nm.
With `C=CCN(C)C=CC=C(C(=O)OC)S(=O)(=O)c1ccc(C)cc1` [methyl-5-[allyl(methyl)amino]-2-[(4-methylphenyl)sulfonyl]penta-2,4-dienoate], for the setting “UV (CH2Cl2)”, the E1% is given as 1346, the “E1% (shoulder)” value is reported as 1031, the λmax came out at 370 nm and the “λmax (shoulder)” value was 356 nm.
